Where only a bound is given, the exact number is not on record here.

As a reminder, the MRT is the average time that molecules of a dose stay in the body. As a reminder, the IC50 is the concentration that gives 50% inhibition. A word on the AUC(0-t): it is exposure summed from dosing to a finite time, without extrapolation to infinity. The low end stands for low exposure, the high end for high exposure.

The nature of data set [1]: Mean residence time in Sprague-Dawley rat at 10 mg/kg, po. It is filed as ADME, organism-based. On the set-up: dose 10 mg/kg, route oral. The conditions noted are these: in vivo.
The next data set concerns the target T1, Androgen receptor (Homo sapiens, UniProt P10275).
T1 sequence (P10275 whole entry): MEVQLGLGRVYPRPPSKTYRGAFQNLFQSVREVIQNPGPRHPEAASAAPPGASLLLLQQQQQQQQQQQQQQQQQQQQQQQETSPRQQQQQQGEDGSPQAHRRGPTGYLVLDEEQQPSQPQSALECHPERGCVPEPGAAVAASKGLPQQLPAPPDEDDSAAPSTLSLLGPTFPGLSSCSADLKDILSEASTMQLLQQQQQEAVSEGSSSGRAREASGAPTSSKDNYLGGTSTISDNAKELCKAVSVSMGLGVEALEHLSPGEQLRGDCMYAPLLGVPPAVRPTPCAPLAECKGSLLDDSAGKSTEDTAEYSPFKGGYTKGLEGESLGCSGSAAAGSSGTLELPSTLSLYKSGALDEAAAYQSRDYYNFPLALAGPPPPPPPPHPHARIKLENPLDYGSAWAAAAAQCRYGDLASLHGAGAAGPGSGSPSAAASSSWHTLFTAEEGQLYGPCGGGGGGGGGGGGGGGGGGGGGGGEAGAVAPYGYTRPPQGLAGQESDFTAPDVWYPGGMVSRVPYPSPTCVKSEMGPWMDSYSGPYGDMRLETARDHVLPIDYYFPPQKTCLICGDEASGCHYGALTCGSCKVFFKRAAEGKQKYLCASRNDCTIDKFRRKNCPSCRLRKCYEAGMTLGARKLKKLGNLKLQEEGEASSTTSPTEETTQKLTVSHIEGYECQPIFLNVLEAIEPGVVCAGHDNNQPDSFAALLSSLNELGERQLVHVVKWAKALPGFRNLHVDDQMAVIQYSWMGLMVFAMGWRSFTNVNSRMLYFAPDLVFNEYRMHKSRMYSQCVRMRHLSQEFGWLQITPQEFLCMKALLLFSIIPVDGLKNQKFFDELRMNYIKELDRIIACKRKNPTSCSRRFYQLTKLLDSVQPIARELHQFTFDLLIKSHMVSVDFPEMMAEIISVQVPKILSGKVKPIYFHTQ
Description: Displacement of [3H]testosterone from AR. A general note: Loss of bound radioactivity is the signal in a displacement assay; it reports binding, not function.

Data set [2] can be described thus: Clearance in Sprague-Dawley rat at 3 mg/kg, iv and 10 mg/kg, po. It is filed as ADME, organism-based. The conditions noted are these: in vivo.
A short description of data set [3]: AUC (0 to 24 hrs) in Sprague-Dawley rat at 10 mg/kg, po. The format is ADME, organism-based. On the set-up: time < 24 hr, dose 10 mg/kg, route oral. To be noted: plasma.
For data set [4], the target named is T2, Mineralocorticoid receptor (Homo sapiens, UniProt P08235).
T2 sequence (P08235 whole entry): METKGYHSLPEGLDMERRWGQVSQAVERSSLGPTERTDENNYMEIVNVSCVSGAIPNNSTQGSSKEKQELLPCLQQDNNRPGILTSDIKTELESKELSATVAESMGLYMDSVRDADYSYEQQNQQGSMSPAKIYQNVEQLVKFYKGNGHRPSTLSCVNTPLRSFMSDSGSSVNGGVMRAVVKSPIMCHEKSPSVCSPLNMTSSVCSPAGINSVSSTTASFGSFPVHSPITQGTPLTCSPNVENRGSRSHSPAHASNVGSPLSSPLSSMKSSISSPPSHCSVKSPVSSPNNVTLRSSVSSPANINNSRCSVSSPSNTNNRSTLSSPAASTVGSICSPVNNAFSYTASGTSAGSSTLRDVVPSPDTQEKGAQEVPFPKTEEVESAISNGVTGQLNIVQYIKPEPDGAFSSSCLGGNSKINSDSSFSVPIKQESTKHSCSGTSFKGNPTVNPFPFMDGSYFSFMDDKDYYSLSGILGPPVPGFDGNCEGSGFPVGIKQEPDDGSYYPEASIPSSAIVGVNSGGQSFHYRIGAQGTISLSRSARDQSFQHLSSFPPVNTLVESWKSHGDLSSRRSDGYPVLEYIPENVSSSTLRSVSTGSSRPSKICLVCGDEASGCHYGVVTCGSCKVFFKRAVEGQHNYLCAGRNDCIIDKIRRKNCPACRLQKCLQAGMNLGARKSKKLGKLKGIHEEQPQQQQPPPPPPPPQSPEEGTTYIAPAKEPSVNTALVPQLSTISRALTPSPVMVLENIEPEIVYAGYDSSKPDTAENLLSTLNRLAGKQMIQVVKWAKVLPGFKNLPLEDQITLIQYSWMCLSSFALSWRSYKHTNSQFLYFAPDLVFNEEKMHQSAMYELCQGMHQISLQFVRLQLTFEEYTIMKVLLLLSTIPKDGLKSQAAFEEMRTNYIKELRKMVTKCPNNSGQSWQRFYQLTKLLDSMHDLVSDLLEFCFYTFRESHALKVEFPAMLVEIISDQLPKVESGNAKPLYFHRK
Description: biochemical.
Description: Displacement of [3H]aldosterone from cytosolic human MR expressed in HEK293 cells after 16 hrs by scintillation counting

Data set [5] concerns the target T2, Mineralocorticoid receptor.
Description: Antagonist activity at human MR transfected in human COS1 cells after 1 day by luciferase reporter gene assay
A further data set deals with T3, Progesterone receptor (Homo sapiens, UniProt P06401).
T3 sequence (P06401 whole entry): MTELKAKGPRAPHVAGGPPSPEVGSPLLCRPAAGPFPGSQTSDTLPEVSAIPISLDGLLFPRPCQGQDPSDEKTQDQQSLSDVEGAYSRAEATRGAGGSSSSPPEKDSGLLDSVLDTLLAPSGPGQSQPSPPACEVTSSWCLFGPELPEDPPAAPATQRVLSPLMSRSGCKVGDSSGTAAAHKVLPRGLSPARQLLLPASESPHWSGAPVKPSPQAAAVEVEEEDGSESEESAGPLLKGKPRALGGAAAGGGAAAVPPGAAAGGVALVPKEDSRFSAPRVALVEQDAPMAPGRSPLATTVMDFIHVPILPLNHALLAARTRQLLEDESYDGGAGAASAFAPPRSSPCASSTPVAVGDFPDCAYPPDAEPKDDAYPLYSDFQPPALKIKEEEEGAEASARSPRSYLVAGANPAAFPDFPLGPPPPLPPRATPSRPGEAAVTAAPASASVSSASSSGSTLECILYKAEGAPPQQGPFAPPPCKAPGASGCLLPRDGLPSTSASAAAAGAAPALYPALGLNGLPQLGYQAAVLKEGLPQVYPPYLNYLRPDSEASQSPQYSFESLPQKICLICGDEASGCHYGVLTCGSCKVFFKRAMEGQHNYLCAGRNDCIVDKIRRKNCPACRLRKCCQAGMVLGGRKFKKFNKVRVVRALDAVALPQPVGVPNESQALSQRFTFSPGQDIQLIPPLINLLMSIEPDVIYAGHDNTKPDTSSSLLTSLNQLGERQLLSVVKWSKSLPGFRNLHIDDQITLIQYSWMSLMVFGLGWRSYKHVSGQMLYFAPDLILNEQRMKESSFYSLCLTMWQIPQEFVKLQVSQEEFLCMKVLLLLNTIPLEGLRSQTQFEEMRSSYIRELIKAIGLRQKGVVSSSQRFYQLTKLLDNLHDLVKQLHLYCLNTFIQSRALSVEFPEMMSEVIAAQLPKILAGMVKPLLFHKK
Briefly: Displacement of [3H]progesterone from PR.

In the case of `Cc1cc(F)ccc1-n1nc(C(F)(F)F)cc1-c1ccc2c(c1)NC(=O)CO2`, the MRT in data set [1] came to 4.39 h. Also, the half-maximal inhibitory concentration (IC50) on Androgen receptor is more than 10 µM; in data set [4] it was 0.041 µM; in data set [5], 0.043 µM; on Progesterone receptor, 1.9 µM. This compound had a clearance in data set [2] of 1.33 L/h/kg. This compound also had an AUC(0-t) at 24 h in data set [3] of 3.83 µg·h/mL.

Source of the values: ChEMBL document CHEMBL1926625, “Identification of benzoxazin-3-one derivatives as novel, potent, and selective nonsteroidal mineralocorticoid receptor antagonists” (J Med Chem, 2011).
